# Laboratory results from patent US20140235630A1, “COMPOSITIONS AND METHODS FOR THE TREATMENT OF PROLIFERATIVE DISEASES” (Beth Israel Deaconess Medical Center, Inc., priority 2011, published 2014).
# Columns and labels:
# [1] = tested on: phospho-AKT (S473); test: AKT phosphorylation in tumor tissue (immunohistochemistry / immunoblot); assay type: in vivo, mouse; conditions: for AKT phosphorylation in tumor tissue lysates: immunoblot, tumor taken 2-3 hours after last dose, Compound A 30 mg/kg/day, Compound B 50 mg/kg/day
# Method: (§1) All animal experiments were conducted in accordance with IACUC-approved protocols at Beth Israel Deaconess Medical Center, Boston, and at the University of Vall d'Hebron, Barcelona, Spain. Female MMTV-CreBRCA1^f/fp53+/− mice were obtained by breeding BRCA1 conditional knockout mice from the NIH repository (01XC8, strain C57BL/6) (Xu et al. Nat. Genet., 22: 37-43, 1999); with MMTV-Cre (Jackson Laboratory B6129-TgN(MMTV-Cre)4Mam) (Wagner et al. Nucleic Acids Res., 25: 4323-4330, 1997) and p53 knockout (Taconic Farms, P53N12-M, C57BL/6) (Donehower et al. Nature, 356: 215-221, 1992). At the time of the study, mice had been inbred for 4 years (>7 generations). The floxed or wild type status of Brca1, the presence of the MMTV-Cre transgene and the p53 heterozygosity were determined by PCR. Mice were examined for the occurrence of tumors twice weekly. When tumormetrics were performed, the length and width of the tumor was determined using calipers, and the tumor volume was determined (width^2×length/2). Tumor volume was used as a measure of growth and was recorded as ratio to tumor volume at diagnosis. Tumor doubling times were calculated using the functions of the best fit curves for all data points in each treatment modality. 5-(2,6-dimorpholinopyrimidin-4-yl)-4-(trifluoromethyl)pyridin-2-amine (Compound A) was resuspended in 5% Methylcellulose solution (Fluka) and administered via oral gavage at 50 mg/kg/day or 30 mg/kg/day. […]
# Cells were treated with mock, 5-(2,6-dimorpholinopyrimidin-4-yl)-4-(trifluoromethyl)pyridin-2-amine (Compound A), 4-[[3-[4-(cyclopropanecarbonyl)piperazine-1-carbonyl]-4-fluorophenyl]methyl]-2H-phthalazin-1-one (Compound B), KU-55933, or the combination and lysed in cell lysis buffer (9803, Cell Signaling) as per the manufacturer's instructions. […] The protein concentration was determined using Bradford reagent (Biorad). […]
# [2] = tested on: spontaneous tumors of MMTV-CreBRCA1^f/fp53+/− mice; test: Tumor growth (relative tumor volume, doubling time) in spontaneous BRCA1-related breast cancer model; assay type: in vivo, mouse; conditions: for tumor doubling time: Compound A 50 or 30 mg/kg/day gavage (pooled), Compound B 50 mg/kg/day i.p., vehicle 5 days; for prolongation of tumor doubling time versus vehicle control: versus 5 days with vehicle
# Method: FIGS. 6A-6D are graphs showing the synergistic effect of a PI3K inhibitor (Compound A) and PARP inhibitor (Compound B) in treating breast cancer. Trendlines (bold lines) were calculated using all data points to determine best fit and show the relative tumor growth in the vehicle control cohort (as in FIG. 6A) and in the Compound A cohort (as in FIG. 6B). The functions of the best-fit curves were used to determine tumor doubling times for all three treatment modalities and controls. Tumor-bearing MMTV-CreBRCA1^f/fp53+/− were treated with either vehicle control (6A); Compound A (6B, 50 mg/kg/day (n=11) or 30 mg/kg/day (n=10)); Compound B (6C, 50 mg/kg/day (n=8)); or the combination of Compound A and Compound B (6D, Compound A 50 mg/kg/day+Compound B 50 mg/kg/day (n=8) or Compound A 30 mg/kg/day+Compound B 50 mg/kg/day (n=7)) and tumor volumes were measured every 2-3 days using calipers.
# FIG. 7 is a graph showing the relative tumor volume (RTV) over time of tumor-bearing MMTV-CreBRCA1^f/fp53+/− mice treated with a control vehicle (n=3), PI3Kα-specific inhibitor Compound C alone (n=7), or a combination of pan-PARP inhibitor Compound B and PI3Kα-specific inhibitor Compound C (n=6). The data of the control and Compound C alone treatment groups are represented by trendlines calculated using all data points to determine best fit. The data of the combination treatment group are individually represented.
# as §1, with “modality.” for “modality. 5-(2,6-dimorpholinopyrimidin-4-yl)-4-(trifluoromethyl)pyridin-2-amine (Compound A) was resuspended in 5% Methylcellulose solution (Fluka) and administered via oral gavage at 50 mg/kg/day or 30 mg/kg/day.”
Structure (SMILES),phosphorylation of AKT at Ser-473 in tumors ([1]; IHC of biopsies before and after two weeks of treatment),AKT phosphorylation in tumor tissue lysates [1],tumor doubling time [2] [days],prolongation of tumor doubling time versus vehicle control [2]
"Nc1cc(C(F)(F)F)c(-c2cc(N3CCOCC3)nc(N3CCOCC3)n2)cn1 [Compound A, 5-(2,6-dimorpholinopyrimidin-4-yl)-4-(trifluoromethyl)pyridin-2-amine]",strongly decreased,potently reduced,26,5 fold
"O=C(c1cc(Cc2n[nH]c(=O)c3ccccc23)ccc1F)N1CCN(C(=O)C2CC2)CC1 [Compound B, 4-[[3-[4-(cyclopropanecarbonyl)piperazine-1-carbonyl]-4-fluorophenyl]methyl]-2H-phthalazin-1-one, reference compound]",–,induction of AKT phosphorylation,16,three-fold
